# Data published in PubChem BioAssay AID328 (DTP/NCI, 2004).
# Values joined by “and” are separate entries in the source; they are usually repeats but may differ in a detail not shown here. Equal values may be shown once. Inconclusive results and toxic doses are left out.
# Test system: BDF1 mice, P388 leukemia ip, median survival T/C
# Assay: NCI In Vivo Anticancer Drug Screen. Data for tumor model P388 Leukemia (intraperitoneal) in B6D2F1 (BDF1) mice
# Conditions: endpoint: median survival time, higher = longer survival
# Procedure, shortened: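 Steps: implant the tumour, treat one group with compound and another with vehicle, record survival, then divide treated by control.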
smiles,measurement,setting,value
O=c1[nH]cc(F)c(=O)[nH]1,T/C,"dose: 5.0 mg/kg/injection, schedule: Q03HX024 (ip), vehicle: saline",210 % of control
same,T/C,"dose: 7.5 mg/kg/injection, schedule: Q01DX009 (ip), vehicle: saline",166 % of control and 179 % of control and 184 % of control
same,T/C,"dose: 7.5 mg/kg/injection, schedule: Q03HX024 (ip), vehicle: saline",219 % of control
same,T/C,"dose: 8.0 mg/kg/injection, schedule: Q01DX005 (ip), vehicle: saline",163 % of control
same,T/C,"dose: 9.4 mg/kg/injection, schedule: Q04DX003 (ip), vehicle: saline",120 % of control
same,T/C,"dose: 10.0 mg/kg/injection, schedule: Q01DX010 (ip), vehicle: acetone",95 % of control
same,T/C,"dose: 10.0 mg/kg/injection, schedule: Q03HX024 (ip), vehicle: saline",233 % of control
same,T/C,"dose: 11.0 mg/kg/injection, schedule: Q01DX009 (ip), vehicle: saline",211 % of control
same,T/C,"dose: 13.0 mg/kg/injection, schedule: Q01DX009 (ip), vehicle: saline",122 % of control
same,T/C,"dose: 13.2 mg/kg/injection, schedule: Q01DX009 (ip), vehicle: saline",250 % of control
same,T/C,"dose: 13.3 mg/kg/injection, schedule: Q01DX009 (ip), vehicle: Klucel (hydroxypropylcellulose) (HPC)",150 % of control
same,T/C,"dose: 13.3 mg/kg/injection, schedule: Q01DX009 (ip), vehicle: saline sonified",181 % of control
same,T/C,"dose: 14.0 mg/kg/injection, schedule: Q01DX009 (ip), vehicle: saline",169 % of control
same,T/C,"dose: 15.0 mg/kg/injection, schedule: Q03HX024 (ip), vehicle: saline",254 % of control
same,T/C,"dose: 16.0 mg/kg/injection, schedule: Q01DX005 (ip), vehicle: saline",170 % of control
same,T/C,"dose: 16.0 mg/kg/injection, schedule: Q01DX009 (ip), vehicle: saline",228 % of control and 169 % of control
same,T/C,"dose: 20.0 mg/kg/injection, schedule: Q01DX005 (ip), vehicle: water",205 % of control
same,T/C,"dose: 20.0 mg/kg/injection, schedule: Q01DX009 (ip), vehicle: Klucel (hydroxypropylcellulose) (HPC)",100 % of control
same,T/C,"dose: 20.0 mg/kg/injection, schedule: Q01DX009 (ip), vehicle: saline sonified",113 % of control
same,T/C,"dose: 20.0 mg/kg/injection, schedule: Q01DX010 (ip), vehicle: acetone",213 % of control
same,T/C,"dose: 20.0 mg/kg/injection, schedule: Q04DX003 (ip), vehicle: saline",166 % of control
same,T/C,"dose: 22.5 mg/kg/injection, schedule: Q03HX024 (ip), vehicle: saline",112 % of control
same,T/C,"dose: 23.0 mg/kg/injection, schedule: Q01DX009 (ip), vehicle: saline",205 % of control
same,T/C,"dose: 24.0 mg/kg/injection, schedule: Q01DX009 (ip), vehicle: saline",243 % of control
same,T/C,"dose: 25.0 mg/kg/injection, schedule: Q04DX003 (ip), vehicle: water",150 % of control
same,T/C,"dose: 26.0 mg/kg/injection, schedule: Q04DX003 (ip), vehicle: saline",96 % of control and 111 % of control
same,T/C,"dose: 27.0 mg/kg/injection, schedule: Q01DX009 (ip), vehicle: Klucel (hydroxypropylcellulose) (HPC)",166 % of control
same,T/C,"dose: 27.0 mg/kg/injection, schedule: Q01DX009 (ip), vehicle: saline sonified",181 % of control
same,T/C,"dose: 27.0 mg/kg/injection, schedule: Q04DX003 (ip), vehicle: saline",154 % of control
same,T/C,"dose: 32.0 mg/kg/injection, schedule: Q01DX005 (ip), vehicle: saline",185 % of control
same,T/C,"dose: 36.0 mg/kg/injection, schedule: Q04DX003 (ip), vehicle: saline",153 % of control and 165 % of control
same,T/C,"dose: 39.0 mg/kg/injection, schedule: Q01DX009 (ip), vehicle: saline",87 % of control
same,T/C,"dose: 40.0 mg/kg/injection, schedule: Q01DX005 (ip), vehicle: water",185 % of control
same,T/C,"dose: 40.0 mg/kg/injection, schedule: Q01DX010 (ip), vehicle: acetone",100 % of control
same,T/C,"dose: 50.0 mg/kg/injection, schedule: Q01DX001 (ip), vehicle: saline",153 % of control
same,T/C,"dose: 50.0 mg/kg/injection, schedule: Q04DX003 (ip), vehicle: saline",152 % of control and 158 % of control
same,T/C,"dose: 50.0 mg/kg/injection, schedule: Q04DX003 (ip), vehicle: water",170 % of control
same,T/C,"dose: 65.0 mg/kg/injection, schedule: Q04DX003 (ip), vehicle: saline",98 % of control
same,T/C,"dose: 66.0 mg/kg/injection, schedule: Q01DX001 (ip), vehicle: saline",100 % of control and 111 % of control
same,T/C,"dose: 75.0 mg/kg/injection, schedule: Q01DX001 (ip), vehicle: water",150 % of control
same,T/C,"dose: 75.0 mg/kg/injection, schedule: Q04DX003 (ip), vehicle: saline",163 % of control and 196 % of control
same,T/C,"dose: 80.0 mg/kg/injection, schedule: Q01DX010 (ip), vehicle: saline",90 % of control
same,T/C,"dose: 88.0 mg/kg/injection, schedule: Q01DX001 (ip), vehicle: saline",99 % of control and 108 % of control
same,T/C,"dose: 100.0 mg/kg/injection, schedule: Q04DX003 (ip), vehicle: water",190 % of control
same,T/C,"dose: 108.0 mg/kg/injection, schedule: Q04DX003 (ip), vehicle: saline",98 % of control
same,T/C,"dose: 160.0 mg/kg/injection, schedule: Q01DX001 (ip), vehicle: saline",104 % of control and 108 % of control and 117 % of control
same,T/C,"dose: 175.0 mg/kg/injection, schedule: Q01DX001 (ip), vehicle: saline",150 % of control
same,T/C,"dose: 180.0 mg/kg/injection, schedule: Q04DX003 (ip), vehicle: saline",100 % of control
same,T/C,"dose: 200.0 mg/kg/injection, schedule: Q04DX003 (ip), vehicle: water",100 % of control
same,T/C,"dose: 225.0 mg/kg/injection, schedule: Q01DX001 (ip), vehicle: saline",117 % of control
same,T/C,"dose: 240.0 mg/kg/injection, schedule: Q01DX001 (ip), vehicle: saline",105 % of control and 106 % of control
same,T/C,"dose: 250.0 mg/kg/injection, schedule: Q01DX001 (ip), vehicle: saline",90 % of control
same,T/C,"dose: 360.0 mg/kg/injection, schedule: Q01DX001 (ip), vehicle: saline",109 % of control and 111 % of control
same,T/C,"dose: 400.0 mg/kg/injection, schedule: Q01DX001 (ip), vehicle: saline",100 % of control
